Columns and labels:
Type in all cases: cell-based
HIV-1 LTR-CAT reporter = test: CAT assay of Tat-mediated transactivation in HCT116 WT and Dicer-/- cells; conditions: HCT116 WT (Dicer) versus Dicer-/-; 48 hrs; Flavopiridol, CR8#13, F07#13 100 nm, 9AA 1000 nm
Procedure: Six hours later, the transfected cells were treated with DMSO, Flavopirodol (100 nm), CR8#13 (100 nm), F07#13 (100 nm), and 9AA (1000 nm). Treated cells were incubated in complete DMEM for 48 hrs at 37° C. Cells were harvested and cell extracts were used for CAT analysis. One tenth the amount of HCT116 Dicer−/−extract compared to HCT116 WT was used for CAT analysis. […] The corresponding bar graphs in A and B show values that represent the percentage of conversion of the [14C] chloramphenicol substrate in the CAT assay.
Various cells lines were transfected with the HIV-1 LTRCAT plasmid and pc-Tat to initiate the LTR transcription, and subsequently subjected to various drug treatments. After 48 hrs, cells were lysed and CAT assays were performed as previously described (Guendel et al, 2009; Van Duyne et al, 2008; Easley et al, 2010).
To evaluate the role on microRNA machinery in inhibition of viral transcription activity, HCT116 colon carcinoma cell lines that either contained a WT Dicer (HCT116 WT) or lacked the Dicer protein (HCT116 Dicer-−/−) were first transfected with the HIV-1 LTR-CAT reporter construct. The HIV-1 LTR transcription was activated with pc-Tat and following incubation for 6 hours was treated with DMSO (negative control), Flavopiridol (positive control), CR8#13, F07#13, or 9AA.
Cells were harvested 48 hrs-post treatment and processed for CAT assays (FIGS. 3A and B). […] Based on this observation the inventors hypothesize that the microRNA machinery, Dicer and Drosha, plays an inhibitory role in HIV-1 transcription.

[1] = tested on: ACH2 cells (HIV-1 infected); test: Cell viability by trypan blue exclusion, 48 hours; conditions: HIV-1 infected; for % Inhibition (percent dead cells) ACH2: 10 μM, 48 hours
Procedure: (§1) TZM-bl cell lines were grown in Dulbecco's modified Eagle's medium supplemented with fetal bovine serum (FBS) (10%, v/v), 2 mM L-glutamine, and antibiotics (penicillin 100 U/ml, streptomycin […]) (cDMEM). HCT116 WT and HCT116 Dicer−/−cell lines were grown in McCoy's medium supplemented with FBS (10%, v/v), 2mM L-glutamine, and antibiotics (penicillin 100 U/ml, streptomycin […]). CEM, ACH2, Jurkat and U937 cells were grown in RPMI 1640 supplemented with FBS, L-glutamine, and antibiotics (penicillin 100 U/ml, streptomycin […]). All cell lines were maintained at 37° C. in 5% (v/v) CO2. […]
(§2) In brief, the inhibition studies were carried out as follows. HIV-1 infected cells ACH2, J1.1, OM10.1, U1 and uninfected CEM, Jurkat T-cells, and U937 were cultured in media. The appropriate inhibitor was added at a concentration of 10 μM. Cells were treated for 48 hours and cell viability was determined using trypan blue exclusion method. Results of such a screen for 19 inhibitors is shown in Table 1 where percent dead cells are indicated each drug tested.
(§3) Again HIV-1 infected and uninfected cells were treated with eighteen Formula I compounds at a drug concentration of 50 nm. Forty-eight hours after treatment, cytotoxicity was determined by trypan blue dye exclusion. Percent inhibition was calculated after obtaining the cell density for each well of the tissue culture plate at the end of 48 hrs.

[2] = tested on: Jurkat T-cells (uninfected); test: Cell viability by trypan blue exclusion, 48 hours; conditions: for % Inhibition (percent dead cells) Jurkat: 10 μM, 48 hours
Procedure: as §1, §2, §3

[3] = tested on: HIV-1 infected and uninfected cells; test: Classification of inhibitors by effect on viability of infected versus uninfected cells; conditions: high
Excerpt: The inhibitors were classified into three categories: high, moderate or poor, according to their effect on cellular viability in both HIV-1 infected and uninfected cells. Among the compounds tested in this study, CR8, a purine analog bearing a 2-pyridyl group para to the phenyl ring position 6 of the purine was the most promising drug candidate that killed HIV-1 infected cells, while having little or no effect on the death of uninfected cells.

CEM cells (uninfected) = test: Cell viability by trypan blue exclusion, 48 hours; conditions: for % Inhibition (percent dead cells) CEM: 10 μM, 48 hours
Procedure: (§4) TZM-bl cell lines were grown in Dulbecco's modified Eagle's medium supplemented with fetal bovine serum (FBS) (10%, v/v), 2 mM L-glutamine, and antibiotics (penicillin 100 U/ml, streptomycin […]) (cDMEM). HCT116 WT and HCT116 Dicer−/−cell lines were grown in McCoy's medium supplemented with FBS (10%, v/v), 2mM L-glutamine, and antibiotics (penicillin 100 U/ml, streptomycin […]). CEM, ACH2, Jurkat and U937 cells were grown in RPMI 1640 supplemented with FBS, L-glutamine, and antibiotics (penicillin 100 U/ml, streptomycin […]). All cell lines were maintained at 37° C. in 5% (v/v) CO2.
(§5) ACH2 cells are infected with HIV-1; TZM-bl cells contain a stably-integrated HIV-1 LTR-Luciferase reporter; CEM, Jurkat, and U937 cells are uninfected. Transfections were carried out using Attractene (Qiagen) lipid reagent. Cells were cultured to confluence and pelleted at 4° C. for 15 min at 3,000 rpm. The cell pellets were washed twice with 25 ml of phosphate-buffered saline (PBS) with Ca2+ and Mg2+ (Quality Biological) and centrifuged once more. Cell pellets were resuspended in lysis buffer (50 mM Tris-HCl, pH 7.5, 120 mM NaCl, 5 mM EDTA, 0.5%, v/v, NP-40, 50 mM NaF, 0.2 mM Na3VO4, 1 mM DTT, one complete protease cocktail tablet/50 ml (Roche) and incubated on ice for 20 min, with gentle vortexing every 5 min. Cell lysates were transferred to eppendorf tubes and were centrifuged at 10,000 rpm for 10 min. Supernatants were transferred to a fresh tube where protein concentrations were determined using Bio-Rad protein assay (Bio-Rad, Hercules, Calif.).
as §2, §3

U937 cells (uninfected) = test: Cell viability by trypan blue exclusion, 48 hours; conditions: for % Inhibition (percent dead cells) U937: 10 μM, 48 hours
Procedure: as §4, §5, §2, §3

[4] = tested on: U1 cells (HIV-1 infected); test: Cell viability by trypan blue exclusion, 48 hours; conditions: HIV-1 infected; for % Inhibition (percent dead cells) U1: 10 μM, 48 hours
Procedure: as §2, §3

[5] = tested on: OM10.1 cells (HIV-1 infected); test: Cell viability by trypan blue exclusion, 48 hours; conditions: HIV-1 infected; for % Inhibition (percent dead cells) OM10.1: 10 μM, 48 hours
Procedure: as §2, §3

[6] = tested on: J1.1 cells (HIV-1 infected); test: Cell viability by trypan blue exclusion, 48 hours; conditions: HIV-1 infected; for % Inhibition (percent dead cells) J1.1: 10 μM, 48 hours
Procedure: as §2, §3

[7] = 10 μM, moderate or poor by effect on viability of infected and uninfected cells

Structure (SMILES) | % Inhibition (percent dead cells) ACH2 [1] | % Inhibition (percent dead cells) Jurkat [2] | Selectivity [3, 7] | % Inhibition (percent dead cells) CEM (CEM cells (uninfected)) | % Inhibition (percent dead cells) U937 (U937 cells (uninfected)) | % Inhibition (percent dead cells) U1 [4] | % Inhibition (percent dead cells) OM10.1 [5] | % Inhibition (percent dead cells) J1.1 [6] | further results
Nc1c2ccccc2nc2ccccc12 [9AA] | – | – | – | – | – | – | – | – | inhibition of viral transcription (CAT) (HIV-1 LTR-CAT reporter): only moderate inhibitory effects
CCOc1ccnc2[nH]cc(-c3ccnc(N)n3)c12 [Meriolin4] | +++ (~75%) | ++ (~50%) | High | + (~25%) | ++ (~50%) | +++ (~75%) | +++ (~75%) | +++ (~75%) | –
COc1ccnc2[nH]cc(-c3ccnc(N)n3)c12 [Meriolin 3] | ++ (~50%) | − (1-5%) | Moderate | − (1-5%) | − (1-5%) | − (1-5%) | − (1-5%) | + (~25%) | –
CC(C)c1cnn2c(NCc3ccc(-c4ccccn4)cc3)nc(N[C@H](CO)C(C)O)nc12 (stereo partly drawn) [MRT3-007, (2R, 3R)-2-(8-isopropyl-4-(4-(pyridine-2-yl)benzylamino)pyrazolo[1,5-α]-1,3,5-triazine-2-ylamino)butane-1,3-diol] | – | – | – | – | – | – | – | – | inhibition at 0.05 µM ([1]; Human immunodeficiency virus 1, ACH-2, 48 h, 50 nM, 48 hrs, read-out: Inhibition Percentage ACH2): 50%; inhibition at 0.05 µM ([2]; Homo sapiens, Jurkat, 50 nM, 48 hrs, read-out: Inhibition Percentage Jurkat): 25%; Selectivity ([3]; 50 nM, moderate or poor): Moderate; inhibition at 0.05 µM (CEM cells (uninfected); Homo sapiens, CCRF-CEM, 48 h, 50 nM, 48 hrs, read-out: Inhibition Percentage CEM): 25%; inhibition at 0.05 µM (U937 cells (uninfected); Homo sapiens, U-937, 50 nM, 48 hrs, read-out: Inhibition Percentage U937): 25%; inhibition at 0.05 µM ([4]; Human immunodeficiency virus 1, 48 h, 50 nM, 48 hrs, read-out: Inhibition Percentage U1): 50%; inhibition at 0.05 µM ([5]; Human immunodeficiency virus 1, 50 nM, 48 hrs, read-out: Inhibition Percentage OM10.1): 50%; inhibition at 0.05 µM ([6]; Human immunodeficiency virus 1, 48 h, 50 nM, 48 hrs, read-out: Inhibition Percentage J1.1): 50%
CC[C@H](CO)Nc1nc(NCc2ccc(-c3ccccn3)cc2)n2ncc(C(C)C)c2n1 [MRT3-028, R-2-(8-isopropyl-4-(4-(pyridine-2-yl)benzylamino)pyrazolo[1,5-α]-1,3,5-triazine-2-ylamino)butan-1-ol] | – | – | – | – | – | – | – | – | Inhibition Percentage ACH2 ([1]; 50 nM, 48 hrs): +++ (~75%); Selectivity ([3]; 50 nM, moderate or poor): High; Inhibition Percentage CEM (CEM cells (uninfected); 50 nM, 48 hrs): ++ (~50%); Inhibition Percentage U1 ([4]; 50 nM, 48 hrs): + (~25%); Inhibition Percentage J1.1 ([6]; 50 nM, 48 hrs): +++ (~75%)
CC(C)Oc1ccnc2[nH]cc(-c3ccnc(N)n3)c12 [Meriolin 6] | +++ (~75%) | − (1-5%) | High | − (1-5%) | ++ (~50%) | − (1-5%) | ++++ (~90%) | +++ (~75%) | –
Nc1nccc(-c2c3c(O)ccnc3n3c(N)nccc23)n1 [Variollin B] | ++ (~50%) | − (1-5%) | Moderate | − (1-5%) | − (1-5%) | − (1-5%) | − (1-5%) | + (~25%) | –
CC[C@H](CO)Nc1nc(Nc2cccc(-c3ccccn3)c2)c2ncn(C(C)C)c2n1 [R-DRF053] | − (1-5%) | − (1-5%) | Poor | − (1-5%) | − (1-5%) | − (1-5%) | − (1-5%) | − (1-5%) | –
CN1C(=O)C(=C2Nc3ccccc3C2=NO)c2cccc(Br)c21 [1-methyl-7-bromo-indirubin-3′-oxime] | − (1-5%) | − (1-5%) | Poor | − (1-5%) | − (1-5%) | − (1-5%) | − (1-5%) | − (1-5%) | –
CCCOc1ccnc2[nH]cc(-c3ccnc(N)n3)c12 [Meriolin5] | +++ (~75%) | − (1-5%) | High | − (1-5%) | ++ (~50%) | − (1-5%) | ++++ (~90%) | ++ (~50%) | –
